Holding throughout (type): cell-based
The test system of experiment [1] is pAKT in T47D (PI3Kα H1047R mutant) cells. Description: Inhibition of pAKT (alphaLISA Surefire Ultra AKT 1/2/3 pS473) in T47D cells. As to conditions: Homo sapiens; T47D (PI3Kα H1047R mutant) cells, 24 hr compound incubation, alphaLISA pS473; read-out: T47D (H1047R) pAKT 24 hr (IC50). Summed up: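 AlphaLISA read-out of AKT pS473 in lysates after roughly 24 h compound exposure at 37° C in HBSS. Ten concentrations, 1:4 dilutions from a 10.4 μm top dose. Percent of control uses alpelisib at 3.125 μm as background and DMSO as vehicle; four-parameter curve gives IC50.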
Background: Alpha assays give light when donor and acceptor beads are brought close together.

Experiment [2] deals with pAKT in SKBR3 (PI3Kα wild type) cells. The experiment can be described thus: Inhibition of pAKT (alphaLISA Surefire Ultra AKT 1/2/3 pS473) in SKBR3 cells. As to conditions: Homo sapiens, SK-BR-3, approximately 24 hours treatment, read-out: SKBR3 (WT) pAKT IC50. On the procedure: The ability of a compound of Formula (I) to inhibit the formation of pAKT was measured using alphaLISA Surefire Ultra AKT 1/2/3 (pS473) Assay Kit (#ALSU-PAKT-B50K) was obtained from Perkin Elmer (Waltham, MA).
To prepare assay plates for pAKT alphaLISA assays, cells were trypsinized, resuspended in fresh media, and viable cells were counted utilizing trypan blue exclusion. Prior to seeding, cells were washed with PBS and resuspended in HBSS (Gibco, #14025092). T47D (12,000/w), SKBR3 (12,000/w), or MKN1 (24,000/w) cells were seeded at 12 μl per well in a solid white flat bottom 384 cell culture plate (Perkin Elmer #6007680).
Immediately after seeding, cells were dosed using an Echo Liquid Handler (Beckman Coulter) with compounds at a 10.4 μm starting concentration and serially diluted (1:4) for a total of 10 concentrations. […] Plates were then imaged the following day using a CLARIOstar microplate reader (BMG Labtech, Germany).
Percent of control values were calculated by subtracting the average signal from the positive control (alpelisib) treated wells from all treated wells (including DMSO control wells) and then divided by the average signal from the vehicle DMSO treated control wells. Percent of vehicle control values were plotted as log(inhibitor) vs. response—Variable slope (four parameters) for curve fitting and IC50 values were determined using XLfit.

Experiment [3] deals with T47D (PI3Kα H1047R mutant) cells. The experiment can be described thus: Cell viability (CellTiter-Glo 2.0) in T47D cells. The following applies: Homo sapiens, T47D, 72 h, approximately 72 hours. Summed up:
(§1)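 IC50 values derive from four-parameter fits of CellTiter-Glo luminescence expressed as percent of vehicle control. Cells (T47D or SKBR3) were plated at 1000/well the day before dosing and incubated about 72 h at 37° C with a 10-point, 1:4 series starting at 10 μm.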
In general terms: ATP-based viability assays read luminescence as a measure of living cells.

Experiment [4] relates to SKBR3 (PI3Kα wild type) cells. The experiment can be described thus: Cell viability (CellTiter-Glo 2.0) in SKBR3 cells. As to conditions: Homo sapiens, SK-BR-3; SKBR3 (PI3Kα wild type) cells, approximately 72 hours, CellTiter-Glo 2.0; read-out: SKBR3 (WT) Viability IC50. Summed up: as §1

SMILES strings stand for the structures.

Take `Cc1cc(C(C)Nc2ccccc2C(=O)O)c2nc(N3CCCCC3)c(C#N)nc2c1` (stereo not shown) [Example 1, 2-((1-(2-cyano-7-methyl-3-(piperidin-1-yl)quinoxalin-5-yl)ethyl)amino)benzoic acid]: the IC50 in experiment [1] is 39 nM; in experiment [2], > 10000 nM; in experiment [3] it was 456 nM; in experiment [4], > 10000 nM.
With `Cc1cc([C@@H](C)Nc2ccc(Cl)nc2C(=O)O)c2nc(C3CC3)c(C#N)nc2c1` [Example 44, (R)-6-chloro-3-((1-(2-cyano-3-cyclopropyl-7-methylquinoxalin-5-yl)ethyl)amino)picolinic acid], the IC50 in experiment [1] is 2 nM; in experiment [3], 157 nM; in experiment [4], > 10000 nM.
The matching figures for `COC[C@@H]1CN(c2nc3c([C@@H](C)Nc4ccc(Cl)nc4C(=O)O)cc(C)cc3nc2C#N)CCO1` [Example 236A, 6-chloro-3-(((R)-1-(2-cyano-3-((S)-2-(methoxymethyl)morpholino)-7-methylquinoxalin-5-yl)ethyl)amino)picolinic acid]: 0.89 nM, 52.8 nM and > 10000 nM.
Take `Cc1cc([C@@H](C)Nc2ccc(Cl)nc2C(=O)O)c2nc(N3CCCOCC3)c(C#N)nc2c1` [Example 242, (R)-6-chloro-3-((1-(2-cyano-7-methyl-3-(1,4-oxazepan-4-yl)quinoxalin-5-yl)ethyl)amino)picolinic acid]: the IC50 was found to be 0.28 nM in experiment [1], 35 nM in experiment [3] and 8260 nM in experiment [4].
Take `Cc1cc([C@@H](C)Nc2ccc(Cl)nc2C(=O)O)c2nc(N3CCC[C@@H]([C@H](C)O)C3)c(C#N)nc2c1` [Example 261C, 6-chloro-3-(((R)-1-(2-cyano-3-((R)-3-((S)-1-hydroxyethyl)piperidin-1-yl)-7-methylquinoxalin-5-yl)ethyl)amino)picolinic acid]: the values for the IC50 in experiment [1], in experiment [3] and in experiment [4] were 2.1 nM, 78 nM and > 10000 nM, respectively.
On the same counts, the results for `C[C@@H](Nc1ccc(Cl)nc1C(=O)O)c1cc(Cl)cc2nc(C#N)c(N3CC4(COC4)C3)nc12` [Example 145] are 1.4 nM, 90 nM and 9960 nM.
Consider `Cc1cc([C@@H](C)Nc2ccc(Cl)nc2C(=O)O)c2nc(N3C[C@@H](C)OC[C@@H]3C)c(C#N)nc2c1` [Example 238B, 6-chloro-3-(((R)-1-(2-cyano-3-((2R,5S)-2,5-dimethylmorpholino)-7-methylquinoxalin-5-yl)ethyl)amino)picolinic acid], for which the values for the IC50 in experiment [1], in experiment [3] and in experiment [4] were 3.5 nM, 117 nM and > 10000 nM, respectively.
The matching figures for `Cc1cc([C@@H](C)Nc2ccc(Cl)nc2C(=O)O)c2nc(N3Cc4ccc(F)cc4C3)c(C#N)nc2c1` [Example 24, (R)-6-chloro-3-((1-(2-cyano-3-(5-fluoroisoindolin-2-yl)-7-methylquinoxalin-5-yl)ethyl)amino)picolinic acid]: 1.3 nM, 44.2 nM and > 10000 nM.
The matching figures for `Cc1cc([C@@H](C)Nc2ccc(Cl)nc2C(=O)O)c2nc(N3CCO[C@H](CO)C3)c(C#N)nc2c1` [Example 235A, 6-chloro-3-(((R)-1-(2-cyano-3-((S)-2-(hydroxymethyl)morpholino)-7-methylquinoxalin-5-yl)ethyl)amino)picolinic acid]: 2 nM, 183 nM and > 10000 nM.

For orientation: IC50 means the concentration that gives 50% inhibition.

(Values after US20240391882A1 (Mirati Therapeutics, Inc., priority 2023, published 2024).)
